In PubChem BioAssay AID248 (DTP/NCI, 2004):
Inconclusive results and toxic doses are left out. Cut-off read from the data, not from the text of the source: active = T/C of 150% or more; inactive = T/C below 125%.

Tested on: L1210 leukemia ip in BDF1 mice, survival T/C
Test: NCI In Vivo Anticancer Drug Screen. Data for tumor model L1210 Leukemia (intraperitoneal) in B6D2F1 (BDF1) mice
Details: endpoint: mean survival time, higher = longer survival
In short: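 Antitumor effect is assessed in tumor-bearing animals. Survival in the compound arm is compared with a vehicle-dosed control arm and expressed as their quotient.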

[1] = dose: 100.0 mg/kg/injection, schedule: Q04DX003 (ip), vehicle: Klucel (hydroxypropylcellulose) (HPC)
[2] = dose: 200.0 mg/kg/injection, schedule: Q04DX003 (ip), vehicle: Klucel (hydroxypropylcellulose) (HPC)
[3] = dose: 400.0 mg/kg/injection, schedule: Q04DX003 (ip), vehicle: Klucel (hydroxypropylcellulose) (HPC)
[4] = dose: 50.0 mg/kg/injection, schedule: Q01DX001 (ip), vehicle: carboxymethylcellulose (CMC)
[5] = dose: 75.0 mg/kg/injection, schedule: Q01DX009 (ip), vehicle: saline
[6] = dose: 100.0 mg/kg/injection, schedule: Q01DX001 (ip), vehicle: carboxymethylcellulose (CMC)
[7] = dose: 100.0 mg/kg/injection, schedule: Q04DX003 (ip), vehicle: saline
[8] = dose: 200.0 mg/kg/injection, schedule: Q01DX001 (ip), vehicle: carboxymethylcellulose (CMC)
[9] = dose: 400.0 mg/kg/injection, schedule: Q01DX001 (ip), vehicle: carboxymethylcellulose (CMC)
[10] = dose: 12.5 mg/kg/injection, schedule: Q01DX009 (ip), vehicle: saline with Tween-80
[11] = dose: 25.0 mg/kg/injection, schedule: Q01DX009 (ip), vehicle: saline with Tween-80
[12] = dose: 12.5 mg/kg/injection, schedule: Q01DX009 (ip), vehicle: saline
[13] = dose: 25.0 mg/kg/injection, schedule: Q01DX009 (ip), vehicle: saline
[14] = dose: 50.0 mg/kg/injection, schedule: Q01DX009 (ip), vehicle: saline
[15] = dose: 50.0 mg/kg/injection, schedule: Q01DX009 (ip), vehicle: saline with Tween-80
[16] = dose: 100.0 mg/kg/injection, schedule: Q01DX009 (ip), vehicle: saline with Tween-80
[17] = dose: 50.0 mg/kg/injection, schedule: Q04DX003 (ip), vehicle: saline

Measured: T/C

O=Cc1ccc(C=O)c(Cl)c1
inactive: dose: 100.0 mg/kg/injection, schedule: Q01DX009 (ip), vehicle: saline sonified 100 % of control | [1] 100 % of control | dose: 200.0 mg/kg/injection, schedule: Q01DX009 (ip), vehicle: saline sonified 87 % of control | [2] 95 % of control | dose: 400.0 mg/kg/injection, schedule: Q01DX009 (ip), vehicle: saline sonified 94 % of control | [3] 103 % of control

CCOC(=O)NC(N)=O
inactive: [4] 92 % of control | [5] 100 % of control | [6] 97 % of control | [1] 110 % of control | [7] 107 % of control | dose: 150.0 mg/kg/injection, schedule: Q01DX009 (ip), vehicle: saline 103 % of control | [8] 95 % of control | [2] 98 % of control | dose: 200.0 mg/kg/injection, schedule: Q04DX003 (ip), vehicle: saline 98 % of control | dose: 300.0 mg/kg/injection, schedule: Q01DX009 (ip), vehicle: saline 100 % of control | [9] 92 % of control | [3] 98 % of control | dose: 400.0 mg/kg/injection, schedule: Q04DX003 (ip), vehicle: saline 102 % of control

O=C(O)CCC(=O)CCC(=O)O
inactive: dose: 100.0 mg/kg/injection, schedule: Q01DX009 (ip), vehicle: other 95 % of control | dose: 200.0 mg/kg/injection, schedule: Q01DX009 (ip), vehicle: other 106 % of control | dose: 400.0 mg/kg/injection, schedule: Q01DX009 (ip), vehicle: other 106 % of control

N#CC1(O)C(Cl)(Cl)CCCC1(Cl)Cl
inactive: dose: 6.25 mg/kg/injection, schedule: Q01DX009 (ip), vehicle: saline with Tween-80 91 % of control | [10] 97 % of control | [11] 94 % of control

O=C(O)C(S)C(S)C(=O)O.[As] (stereo unspecified)
inactive: [12] 96 % of control | [13] 104 % of control | [14] 98 % of control

CCOCC[P+](c1ccccc1)(c1ccccc1)c1ccccc1
inactive: dose: 5.0 mg/kg/injection, schedule: Q01DX001 (ip), vehicle: saline 92 % of control | dose: 10.0 mg/kg/injection, schedule: Q01DX001 (ip), vehicle: saline 92 % of control | dose: 10.0 mg/kg/injection, schedule: Q01DX015 (ip), vehicle: saline 90 % of control | dose: 20.0 mg/kg/injection, schedule: Q01DX001 (ip), vehicle: saline 106 % of control | dose: 40.0 mg/kg/injection, schedule: Q01DX001 (ip), vehicle: saline 105 % of control

CCN(/C=C1\CCOC1=O)CC
inactive: dose: 100.0 mg/kg/injection, schedule: Q04DX002 (ip), vehicle: saline 101 % of control | dose: 200.0 mg/kg/injection, schedule: Q04DX002 (ip), vehicle: saline 97 % of control

CCCCCCCC(=O)NO
inactive: dose: 100.0 mg/kg/injection, schedule: Q04DX003 (ip), vehicle: saline with Tween-80 98 % of control | dose: 200.0 mg/kg/injection, schedule: Q04DX003 (ip), vehicle: saline with Tween-80 102 % of control | dose: 400.0 mg/kg/injection, schedule: Q04DX003 (ip), vehicle: saline with Tween-80 102 % of control

CCCCCC(C)SC#N (stereo unspecified)
inactive: [11] 107 % of control | [15] 102 % of control | [16] 88 % of control

COC1=C(N)C(=O)c2ncccc2C1=O
inactive: dose: 4.0 mg/kg/injection, schedule: Q01DX009 (ip), vehicle: acetone 105 % of control | dose: 8.0 mg/kg/injection, schedule: Q01DX009 (ip), vehicle: acetone 105 % of control | dose: 16.0 mg/kg/injection, schedule: Q01DX009 (ip), vehicle: acetone 102 % of control

CC#CCC(N)C(=O)O (stereo unspecified)
inactive: dose: 75.0 mg/kg/injection, schedule: Q01DX001 (ip), vehicle: carboxymethylcellulose (CMC) 109 % of control | dose: 80.0 mg/kg/injection, schedule: Q01DX009 (ip), vehicle: saline 105 % of control | dose: 150.0 mg/kg/injection, schedule: Q01DX001 (ip), vehicle: carboxymethylcellulose (CMC) 103 % of control | dose: 160.0 mg/kg/injection, schedule: Q01DX009 (ip), vehicle: saline 106 % of control | dose: 300.0 mg/kg/injection, schedule: Q01DX001 (ip), vehicle: carboxymethylcellulose (CMC) 118 % of control | dose: 320.0 mg/kg/injection, schedule: Q01DX009 (ip), vehicle: saline 94 % of control

N#CC(Nc1ccccc1)c1ccc(Cl)cc1 (stereo unspecified)
inactive: [15] 101 % of control | [16] 97 % of control | dose: 200.0 mg/kg/injection, schedule: Q01DX009 (ip), vehicle: saline with Tween-80 94 % of control

[N-]=[N+]=C1C=CC=C1C(=O)O
inactive: dose: 12.5 mg/kg/injection, schedule: Q01DX009 (ip), vehicle: Klucel (hydroxypropylcellulose) (HPC) 98 % of control | dose: 25.0 mg/kg/injection, schedule: Q01DX009 (ip), vehicle: Klucel (hydroxypropylcellulose) (HPC) 103 % of control | dose: 50.0 mg/kg/injection, schedule: Q01DX009 (ip), vehicle: Klucel (hydroxypropylcellulose) (HPC) 97 % of control | dose: 100.0 mg/kg/injection, schedule: Q04DX003 (ip), vehicle: acetone 94 % of control | dose: 200.0 mg/kg/injection, schedule: Q04DX003 (ip), vehicle: acetone 93 % of control | dose: 400.0 mg/kg/injection, schedule: Q04DX003 (ip), vehicle: acetone 91 % of control

C=Cn1nnnc1N
inactive: dose: 100.0 mg/kg/injection, schedule: Q01DX001 (ip), vehicle: saline with Tween-80 100 % of control | dose: 200.0 mg/kg/injection, schedule: Q01DX001 (ip), vehicle: saline with Tween-80 93 % of control | dose: 400.0 mg/kg/injection, schedule: Q01DX001 (ip), vehicle: saline with Tween-80 98 % of control

C/C=C\c1ccc(OC(=O)Nc2ccc(C(=O)OCC)cc2)c(OC)c1
inactive: dose: 100.0 mg/kg/injection, schedule: Q01DX009 (ip), vehicle: Klucel (hydroxypropylcellulose) (HPC) 94 % of control | dose: 200.0 mg/kg/injection, schedule: Q01DX009 (ip), vehicle: Klucel (hydroxypropylcellulose) (HPC) 94 % of control | dose: 400.0 mg/kg/injection, schedule: Q01DX009 (ip), vehicle: Klucel (hydroxypropylcellulose) (HPC) 89 % of control

CCCCCCCCCCCCCCCOc1cc(C=O)ccc1OC
inactive: dose: 100.0 mg/kg/injection, schedule: Q01DX001 (ip), vehicle: Klucel (hydroxypropylcellulose) (HPC) 87 % of control | dose: 200.0 mg/kg/injection, schedule: Q01DX001 (ip), vehicle: Klucel (hydroxypropylcellulose) (HPC) 87 % of control

CCCC1(c2ccccc2)NC(=O)NC1=O (stereo unspecified)
inactive: dose: 100.0 mg/kg/injection, schedule: Q01DX001 (ip), vehicle: saline 96 % of control | dose: 200.0 mg/kg/injection, schedule: Q01DX001 (ip), vehicle: saline 102 % of control

c1ccc(C2=NCCCO2)cc1
inactive: [10] 100 % of control | [11] 103 % of control | [15] 102 % of control | [17] 91 % of control | [16] 102 % of control | [7] 96 % of control

CCCCNC(C)(C)CS
inactive: dose: 6.25 mg/kg/injection, schedule: Q01DX009 (ip), vehicle: saline 105 % of control | [12] 94 % of control | dose: 12.5 mg/kg/injection, schedule: Q04DX003 (ip), vehicle: saline 100 % of control | [13] 96 % of control | dose: 25.0 mg/kg/injection, schedule: Q04DX003 (ip), vehicle: saline 94 % of control | [14] 102 % of control | [17] 102 % of control | [5] 105 % of control

S=c1[nH]nc2scnn12
inactive: [4] 94 % of control | [6] 94 % of control | [8] 97 % of control | [9] 94 % of control

CC1=CC(=O)[C@@H](O)[C@]2(C)[C@H]3[C@@]4(O)OC[C@]35[C@H]([C@@H](C)[C@H]4O)[C@@H](O)C(=O)O[C@@H]5C[C@@H]12
inactive: dose: 2.5 mg/kg/injection, schedule: Q01DX009 (ip), vehicle: saline 107 % of control | dose: 5.0 mg/kg/injection, schedule: Q01DX009 (ip), vehicle: saline 96 % of control | dose: 10.0 mg/kg/injection, schedule: Q01DX009 (ip), vehicle: saline 102 % of control | dose: 20.0 mg/kg/injection, schedule: Q01DX009 (ip), vehicle: saline 100 % of control
